The source of these data is ChEMBL document CHEMBL5500372, “Novel natural osthole-inspired amphiphiles as membrane targeting antibacterials against methicillin-resistant Staphylococcus aureus (MRSA)” (Eur J Med Chem, 2024).

For data set [1], the system named is Cell membrane. Description: Induction of cytoplasmic membrane permeabilization in methicillin-resistant Staphylococcus aureus clinical isolate 16 assessed as increase in fluorescence intensity measured after 35 mins by SYTOX green dye based fluorescence analysis.
Data set [2] has as its system Cell membrane. Description: Induction of cytoplasmic membrane depolarization in methicillin-resistant Staphylococcus aureus clinical isolate 16 assessed as increase in fluorescence intensity measured after 35 mins by DiSC3-5 dye based fluorescence method. It counts as cell membranes.
The subject of data set [3] is Staphylococcus aureus. Description: Antibacterial activity against Staphylococcus aureus ATCC 29213 measured after 18 hrs by CLSI based broth microdilution method. It counts as functional. On the technique in general: Dilution methods test growth across graded concentrations, often in twofold steps.
The test system of data set [4] is Staphylococcus aureus. Description: Antibacterial activity against methicillin-resistant Staphylococcus aureus clinical isolate 17 measured after 18 hrs by CLSI based broth microdilution method. It is filed as functional.
Data set [5] concerns Staphylococcus aureus. Description: Antibacterial activity against methicillin-resistant Staphylococcus aureus clinical isolate 13 measured after 18 hrs by CLSI based broth microdilution method. It is filed as functional.
The test system of data set [6] is Staphylococcus aureus. Description: Antibacterial activity against methicillin-resistant Staphylococcus aureus clinical isolate 23 measured after 18 hrs by CLSI based broth microdilution method. It is filed as functional.
The test system of data set [7] is Staphylococcus aureus. Kind of data set: Antibacterial activity against methicillin-resistant Staphylococcus aureus clinical isolate 16 measured after 18 hrs by CLSI based broth microdilution method. It counts as functional.
The test system of data set [8] is Staphylococcus aureus. Description: Antibacterial activity against methicillin-resistant Staphylococcus aureus clinical isolate 21 measured after 18 hrs by CLSI based broth microdilution method. It counts as functional.
Data set [9] relates to Staphylococcus aureus. Description: Antibacterial activity against methicillin-resistant Staphylococcus aureus clinical isolate 11 measured after 18 hrs by CLSI based broth microdilution method. It is filed as functional.
Data set [10] relates to Staphylococcus aureus. Description: Antibacterial activity against methicillin-resistant Staphylococcus aureus clinical isolate 12 measured after 18 hrs by CLSI based broth microdilution method. It is filed as functional.
The subject of data set [11] is Staphylococcus aureus. Kind of data set: Antibacterial activity against methicillin-resistant Staphylococcus aureus clinical isolate 20 measured after 18 hrs by CLSI based broth microdilution method. It is filed as functional.
Data set [12] concerns Staphylococcus aureus. Kind of data set: Antibacterial activity against methicillin-resistant Staphylococcus aureus clinical isolate 22 measured after 18 hrs by CLSI based broth microdilution method. It counts as functional.
The test system of data set [13] is Staphylococcus aureus. Description: Antibacterial activity against methicillin-resistant Staphylococcus aureus clinical isolate 14 measured after 18 hrs by CLSI based broth microdilution method. It is filed as functional.
The test system of another data set is Escherichia coli. Kind of data set: Antibacterial activity against Escherichia coli ATCC 25922 measured after 18 hrs by CLSI based broth microdilution method. It is filed as functional.
A short description of data set [14]: Hemolytic activity in sheep erythrocyte assessed as hemolysis incubated for 1 hr by absorbance based analysis. It is filed as toxicity, cell-based, Ovis aries. To be noted: sheep erythrocytes.
The nature of data set [15]: Selectivity index, ratio of HC50 for hemolytic activity in sheep erythrocyte assessed as hemolysis to MIC for antibacterial activity against Staphylococcus aureus ATCC 29213. It is filed as toxicity. To be noted: sheep erythrocytes, read-out: Selectivity Index.
Data set [16] concerns Staphylococcus aureus. Kind of data set: Antibacterial activity against Staphylococcus aureus ATCC 29213 at 128 ug/ml measured after 20 passages by CLSI micro broth dilution method. It is filed as functional, organism-based. The note with it: dose 128.0 µg/ml.

The structures appear in SMILES notation. Calls of active or inactive are those of the source. No cut-off for these calls is given here.

`CC[C@H](C)[C@H](NC(=O)CN)C(=O)NCC(=O)N[C@@H](C)C(=O)N[C@H](C(=O)N[C@@H](CC(C)C)C(=O)N[C@@H](CCCCN)C(=O)N[C@H](C(=O)N[C@@H](CC(C)C)C(=O)N[C@H](C(=O)N[C@H](C(=O)NCC(=O)N[C@@H](CC(C)C)C(=O)N1CCC[C@H]1C(=O)N[C@@H](C)C(=O)N[C@@H](CC(C)C)C(=O)N[C@H](C(=O)N[C@@H](CO)C(=O)N[C@@H](Cc1c[nH]c2ccccc12)C(=O)N[C@H](C(=O)N[C@@H](CCCCN)C(=O)N[C@@H](CCCNC(=N)N)C(=O)N[C@@H](CCCCN)C(=O)N[C@@H](CCCNC(=N)N)C(=O)N[C@@H](CCC(N)=O)C(=O)N[C@@H](CCC(N)=O)C(N)=O)[C@@H](C)CC)[C@@H](C)CC)[C@@H](C)O)[C@@H](C)O)C(C)C)C(C)C`: the outcome in the data set with Cell membrane [1] and in the data set with Cell membrane [2] was Active.
In general, MIC refers to the lowest concentration that inhibits growth of the organism. Usually HC50 stands for the concentration that lyses half of the red blood cells. As to `CC(C)=CCc1c(OCCCC[N+](C)(C)CC(=O)N(C(C)C)C(C)C)ccc2ccc(=O)oc12.[Br-]`, the MIC was found to be 16 mg/L in the data set with Staphylococcus aureus [3]; 16 mg/L with Staphylococcus aureus [4]; 32 mg/L against Staphylococcus aureus [5]; 16 mg/L in the data set on Staphylococcus aureus [6]; 16 mg/L in the data set with Staphylococcus aureus [7]; 16 mg/L in the data set with Staphylococcus aureus [8]. The MIC is 16 mg/L in the data set with Staphylococcus aureus [9]; 32 mg/L in the data set with Staphylococcus aureus [10]; 16 mg/L with Staphylococcus aureus [11]; 16 mg/L against Staphylococcus aureus [12]; 16 mg/L with Staphylococcus aureus [13]; 128 mg/L against Escherichia coli. In addition, the HC50 at 1 h in data set [14] worked out at 1270 µg/mL. For the same compound, in data set [15], the selectivity ratio was found to be 79.2.
In the case of `CCNC(=O)C[N+](C)(C)CCCCOc1ccc2ccc(=O)oc2c1CC=C(C)C.[Br-]`, the MIC against Staphylococcus aureus [3], with Staphylococcus aureus [4], with Staphylococcus aureus [5], in the data set with Staphylococcus aureus [6], against Staphylococcus aureus [7] and against Staphylococcus aureus [8] was 128 mg/L in each case. The MIC against Staphylococcus aureus [9] is 128 mg/L; in the data set on Staphylococcus aureus [10], 128 mg/L; with Staphylococcus aureus [11], 64 mg/L; in the data set on Staphylococcus aureus [12] it was 128 mg/L; against Staphylococcus aureus [13], 128 mg/L; in the data set on Escherichia coli, 128 mg/L. Further, the HC50 at 1 h in [14] is greater than 1280 µg/mL. Besides, the selectivity ratio in [15] is greater than 10.
Consider `CCNC(=O)C[N+](C)(C)CCCCCOc1ccc2ccc(=O)oc2c1CC=C(C)C.[Br-]`, for which the MIC was 64 mg/L in the data set on Staphylococcus aureus [3]; 64 mg/L against Staphylococcus aureus [4]; 64 mg/L against Staphylococcus aureus [5]; 32 mg/L in the data set with Staphylococcus aureus [6]; 32 mg/L in the data set with Staphylococcus aureus [7]; 64 mg/L with Staphylococcus aureus [8]. Moreover, the MIC was 64 mg/L against Staphylococcus aureus [9]; 64 mg/L with Staphylococcus aureus [10]; 64 mg/L in the data set with Staphylococcus aureus [11]; 32 mg/L in the data set on Staphylococcus aureus [12]; 32 mg/L with Staphylococcus aureus [13]; greater than 128 mg/L against Escherichia coli. In [14], the HC50 at 1 h is greater than 1280 µg/mL. Also, the selectivity ratio in data set [15] is greater than 20.
Take `CCCNC(=O)C[N+](C)(C)CCCOc1ccc2ccc(=O)oc2c1CC=C(C)C.[Br-]`: the MIC with Staphylococcus aureus [3], in the data set with Staphylococcus aureus [4], against Staphylococcus aureus [5], with Staphylococcus aureus [6], in the data set on Staphylococcus aureus [7] and in the data set with Staphylococcus aureus [8] was 128 mg/L each time. Further, the MIC with Staphylococcus aureus [9] came out at 128 mg/L; in the data set on Staphylococcus aureus [10] it was 64 mg/L; against Staphylococcus aureus [11], 128 mg/L; with Staphylococcus aureus [12], 128 mg/L; with Staphylococcus aureus [13], 128 mg/L; in the data set on Escherichia coli, 128 mg/L. The HC50 at 1 h in data set [14] was greater than 1280 µg/mL. In [15], the selectivity ratio was greater than 10.
For the compound `CCCCCCNC(=O)C[N+](C)(C)CCCOc1ccc2ccc(=O)oc2c1CC=C(C)C.[Br-]`, the MIC against Staphylococcus aureus [3] was 4 mg/L; in the data set with Staphylococcus aureus [4], 4 mg/L; in the data set on Staphylococcus aureus [5] it was 8 mg/L; against Staphylococcus aureus [6], 4 mg/L; in the data set on Staphylococcus aureus [7], 4 mg/L; against Staphylococcus aureus [8], 4 mg/L. Further, the MIC was found to be 4 mg/L against Staphylococcus aureus [9]; 8 mg/L in the data set on Staphylococcus aureus [10]; 4 mg/L in the data set with Staphylococcus aureus [11]; 4 mg/L in the data set on Staphylococcus aureus [12]; 4 mg/L in the data set on Staphylococcus aureus [13]; 32 mg/L against Escherichia coli. Also, in data set [14], the HC50 at 1 h was greater than 1280 µg/mL. For the same compound, in data set [15], the selectivity ratio was greater than 320.
Turning to `CCCCCNC(=O)C[N+](C)(C)CCCCOc1ccc2ccc(=O)oc2c1CC=C(C)C.[Br-]`, the MIC amounted to 8 mg/L in the data set on Staphylococcus aureus [3]; 8 mg/L against Staphylococcus aureus [4]; 16 mg/L in the data set on Staphylococcus aureus [5]; 8 mg/L with Staphylococcus aureus [6]; 8 mg/L against Staphylococcus aureus [7]; 8 mg/L against Staphylococcus aureus [8]. Also, the MIC against Staphylococcus aureus [9] is 8 mg/L; in the data set with Staphylococcus aureus [10] it was 16 mg/L; against Staphylococcus aureus [11], 8 mg/L; in the data set with Staphylococcus aureus [12], 8 mg/L; with Staphylococcus aureus [13] it was 8 mg/L; against Escherichia coli, 64 mg/L. Further, in data set [14], the HC50 at 1 h was greater than 1280 µg/mL. In data set [15], the selectivity ratio was greater than 160.
`CCCNC(=O)C[N+](C)(C)CCCCOc1ccc2ccc(=O)oc2c1CC=C(C)C.[Br-]`: the MIC in the data set on Staphylococcus aureus [3] turned out to be 64 mg/L; against Staphylococcus aureus [4] it was 64 mg/L; in the data set with Staphylococcus aureus [5] it was 64 mg/L; against Staphylococcus aureus [6], 64 mg/L; against Staphylococcus aureus [7], 32 mg/L; in the data set on Staphylococcus aureus [8], 64 mg/L. For the same compound, the MIC in the data set on Staphylococcus aureus [9] came to 64 mg/L; against Staphylococcus aureus [10] it was 64 mg/L; against Staphylococcus aureus [11] it was 64 mg/L; with Staphylococcus aureus [12], 64 mg/L; in the data set on Staphylococcus aureus [13], 32 mg/L; in the data set on Escherichia coli, 128 mg/L. Moreover, the HC50 at 1 h in [14] is greater than 1280 µg/mL. Further, the selectivity ratio in data set [15] was greater than 20.
For the compound `CCNC(=O)C[N+](C)(C)CCCOc1ccc2ccc(=O)oc2c1CC=C(C)C.[Br-]`, the MIC with Staphylococcus aureus [3], with Staphylococcus aureus [4], against Staphylococcus aureus [5], against Staphylococcus aureus [6], with Staphylococcus aureus [7] and in the data set with Staphylococcus aureus [8] was 128 mg/L in each case. For the same compound, the minimal inhibitory concentration (MIC) was 128 mg/L in the data set on Staphylococcus aureus [9]; 128 mg/L with Staphylococcus aureus [10]; 128 mg/L with Staphylococcus aureus [11]; 128 mg/L against Staphylococcus aureus [12]; 128 mg/L with Staphylococcus aureus [13]; greater than 128 mg/L in the data set on Escherichia coli. In addition, the HC50 at 1 h in data set [14] is greater than 640 µg/mL. Also, the selectivity ratio in data set [15] was greater than 5.
As for `CCn1cc(C(=O)O)c(=O)c2cc(F)c(N3CCNCC3)cc21`, the outcome in the data set with Staphylococcus aureus [16] was Active.
In the case of `CCCN(CCC)C(=O)C[N+](C)(C)CCCCCOc1ccc2ccc(=O)oc2c1CC=C(C)C.[Br-]`, the MIC in the data set on Staphylococcus aureus [3], in the data set on Staphylococcus aureus [4], against Staphylococcus aureus [5], in the data set on Staphylococcus aureus [6], against Staphylococcus aureus [7] and against Staphylococcus aureus [8] was 8 mg/L throughout. In addition, the MIC stood at 8 mg/L against Staphylococcus aureus [9]; 16 mg/L in the data set on Staphylococcus aureus [10]; 8 mg/L in the data set with Staphylococcus aureus [11]; 4 mg/L against Staphylococcus aureus [12]; 8 mg/L against Staphylococcus aureus [13]; 128 mg/L in the data set with Escherichia coli. In addition, the HC50 at 1 h in data set [14] worked out at 779 µg/mL. In data set [15], the selectivity ratio amounted to 97.4.
Take `CC(C)=CCc1c(OCCCCC[N+](C)(C)CC(=O)N(C(C)C)C(C)C)ccc2ccc(=O)oc12.[Br-]`: the MIC in the data set with Staphylococcus aureus [3] was found to be 4 mg/L; in the data set with Staphylococcus aureus [4], 4 mg/L; in the data set on Staphylococcus aureus [5], 8 mg/L; against Staphylococcus aureus [6], 4 mg/L; in the data set with Staphylococcus aureus [7], 4 mg/L; in the data set with Staphylococcus aureus [8] it was 4 mg/L. Also, the MIC against Staphylococcus aureus [9] is 8 mg/L; against Staphylococcus aureus [10], 8 mg/L; with Staphylococcus aureus [11] it was 4 mg/L; against Staphylococcus aureus [12] it was 4 mg/L; in the data set with Staphylococcus aureus [13], 4 mg/L; with Escherichia coli, greater than 128 mg/L. In addition, the HC50 at 1 h in data set [14] was determined as 736 µg/mL. In addition, in data set [15], the selectivity ratio worked out at 184.
